# Results taken from PubChem BioAssay (NCI).
# Several values for one entry are separate records, joined by “and”; a condition that tells them apart may be missing. Equal values may be shown once.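 Five compound concentrations were applied to cells in 96-well plates for 48 hours; endpoints were derived by simple linear interpolation of the resulting dose-response curve. GI50 is the concentration that inhibits growth by half. TGI marks complete inhibition of growth.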
# Test system: MDA-MB-468 breast
# Test: growth of human tumour cells (NCI), 48 h
Structure (SMILES),GI50,TGI
CCn1c(-c2nonc2N)nc2c(C#CC(C)(C)O)nc(OCCNC)cc21,3320 nM,10400 nM
O=C(O)c1ccc2c(c1)CCCC(c1ccc(Cl)cc1Cl)=C2c1ccc(O[C@H]2CCN(CCCF)C2)cc1,12000 nM,26900 nM
COc1cc2ncnc(Nc3ccc(F)c(Cl)c3)c2cc1NC(=O)/C=C/CN1CCCCC1,< 10 nM,5.38 nM
COc1cc(C(=O)Nc2cc3c(cc2Oc2cc(C)cc(C)c2)C(=O)N(C)[C@@H](CC(=O)N(C)O)C(=O)N3)c(Br)c(OC)c1OC,< 3.33 nM,< 3.33 nM
COc1ccc(-c2ccc(-c3ccc(C(=N)N)cn3)o2)cc1,2040 nM,5690 nM
Cc1cc2c(cc1C)N(C(=O)CCl)CCN2C(=O)CCl,199 nM,457 nM
COC(=O)C1CCc2sc3ncnc(Nc4cn[nH]c4C(=O)Nc4ccc(CN5CCN(C)CC5)cc4)c3c21 (centres undefined),1420 nM,> 100000 nM
COc1ccccc1/C=C/C(=O)c1ccccc1,7230 nM,28000 nM
COc1cc(-c2n/c(=C\c3c(O)[nH]c4ccc(Cl)cc34)cc3c2=Nc2ccccc2-3)ccc1F,1810 nM,3810 nM
CN1CCN(Cc2ccc(NC(=O)c3cncc(C#Cc4cnc5ccc(NCCO)nn45)c3)cc2C(F)(F)F)CC1,227 nM,1020 nM
Cc1c(C(=O)NCCN2CCOCC2)cn2ncnc(Oc3ccc(NC(=O)Nc4ccc(Cl)c(C(F)(F)F)c4)cc3)c12,1520 nM,3450 nM
CCCCCCCCCCCCCCCCCC1=NCCN1C(=O)OCCO,1680 nM,3210 nM
CCOc1cccc(/C=N/NC(=O)C(=O)Nc2cccc(C(F)(F)F)c2)c1O,2050 nM,15800 nM
CNCCn1c(=O)c2cc(OC)c(OC)cc2c2ccc3cc4c(cc3c21)OCO4,74.3 nM,244 nM
C=C1C(=O)O[C@H]2[C@H]1CC/C(COC(=O)c1cc3cc(Cl)ccc3[nH]1)=C\CC[C@@]1(C)O[C@@H]21,1890 nM,4070 nM
C/C=C1\NC(=O)[C@H]2CSSCCC=C[C@H](CC(=O)N[C@H](C(C)C)C(=O)N2)OC(=O)[C@H](C(C)C)NC1=O,< 10 nM,< 12.2 nM
Fc1cc2[nH]ncc2c2c3c(c(-c4cn[nH]c4C(F)(F)F)nc12)C1CCC3C1 (centres undefined),1100 nM,3980 nM
CC[PH+](CC)CC.O=COC1OC([S-])C(OC=O)C(OC=O)C1OC=O.[Au+] (centres undefined),659 nM,2310 nM
COc1cc(/C=C2\C(=O)Nc3ccc(N(C)C)cc32)cc(OC)c1OC,3250 nM,27200 nM

Structure (SMILES),GI50,TGI
Cc1nc2sccn2c1-c1csc(Nc2cccc(Cl)c2C)n1,1050 nM,11000 nM
COc1ccc2cc(-c3c(-c4ccncc4)nc(-c4ccc(S(C)(=O)=O)cc4C)n3C)ccc2c1,3020 nM,14500 nM
COc1cc2c(=O)n(CCN)c3c4cc5c(cc4ccc3c2cc1OC)OCO5,219 nM,881 nM
CCOc1cc(/C=N\Nc2nnc(C)n2N)c(C)cc1N(CCCl)CCCl,321 nM,2230 nM
Cc1cc(Cl)ccc1Nc1nc(C(F)(F)F)ccc1C(=O)N/N=C/c1ccc([N+](=O)[O-])cc1,1160 nM,5160 nM
COc1ccc(N2C(=O)[C@H]3CC(C)c4c([nH]c5ccccc45)[C@H]3C2=O)cc1 (some centres undefined),3630 nM,54100 nM
C=CC(=O)Nc1cc2c(Nc3ccc(F)c(Cl)c3)ncnc2cc1OCCCN1CCOCC1,< 10 nM and 2.38 nM,194 nM and 101 nM
COc1ccc2[nH]c(O)c(C(=Nc3ccc(N(C)C(=O)CN4CCN(C)CC4)cc3)c3ccccc3)c2c1,2600 nM,6130 nM
CN1C(=O)N(C)C2C1NN=c1s/c(=C\c3ccc(F)cc3)c(=O)n12 (centres undefined),366 nM,4070 nM
Cc1ccc(-c2csc(NC(=O)CN3CCN(c4cc5c(cc4F)c(=O)c(C(=O)O)cn5C4CC4)CC3)n2)cc1,697 nM,6530 nM
NC(=O)c1cc2c3ccccc3ccn2c1-c1ccccc1,273 nM,15200 nM
Cc1sc2nc3c4ccccc4c(NCCCN(C)C)nn3c(=O)c2c1C,1270 nM,2800 nM
CCCOc1ccc2nc(NC(=O)OC)[nH]c2c1,274 nM,> 100000 nM
CCn1c2ccc(O)cc2c2c(C)c3c[n+](C)ccc3c(C)c21,284 nM,2600 nM
Cn1c2c(c3ccc(Cl)c(Cl)c31)C(C#N)C1(CCNCC1)NC2=O (centres undefined),1630 nM,4290 nM
COc1ccc(C2=NN(C=O)C(c3cccc(Nc4ccnc5cc(Cl)ccc45)c3)C2)cc1 (centres undefined),417 nM,3480 nM
COc1ccc(Cn2cc3c(c2)-c2oncc2CC3)cc1,3200 nM,> 100000 nM
CC1(C)CC[C@]23CC[C@]4(C)[C@H](CC[C@@H]5[C@@]6(C)CC[C@H](N)C(C)(C)[C@@H]6CC[C@]54C)[C@H]2[C@H]1OC3,1700 nM,3250 nM
